Molecules are shown by their SMILES. pIC50: −log10 of the molar value.

This test addresses Glutamate NMDA receptor. Briefly: Compound was evaluated for its ability to displace […] binding for NMDA receptor. In kind it is protein-complex assay.
What is called pIC50 is the IC50 on a negative log10 scale, so that one unit is a factor of ten. A lower pIC50 goes with a high IC50. `NC(CCCP(=O)(O)O)CC(N)C(=O)O` (stereo not drawn): the pIC50 was 5.64. Next, `NC(CC(O)CP(=O)(O)O)C(=O)O` (stereo not drawn): 6.89; `O=C(O)C1CC(CP(=O)(O)O)N=CN1` (stereo not drawn): 5.23; `O=C(O)C1CC(CCCP(=O)(O)O)N=CN1` (stereo not drawn): 6.38. The compound `O=C(O)C1CN(CCCP(=O)(O)O)CCN1` (stereo not drawn) had a negative logarithm of the IC50 (pIC50) of 7.55. Next, `NC(CC(N)C(=O)O)CP(=O)(O)O` (stereo not drawn): 5.84. Next, `NC(CC(CP(=O)(O)O)S(=O)O)C(=O)O` (stereo not drawn): 6.62. Next, `O=C(O)[C@@H]1C[C@H](CP(=O)(O)O)CCN1` [SELFOTEL]: 7.62.

Source of the values: ChEMBL document CHEMBL1150499, “Excitatory amino acids: 6-phosphonomethyltetrahydro-4-pyrimidinecarboxylic acids and their acyclic analogues are competitive N-methyl-D-aspartic acid receptor antagonists” (Bioorg Med Chem Lett, 1992).
